Measured values published in patent US20150174144A1, “TETRACYCLINE COMPOUNDS FOR TREATING NEURODEGENERATIVE DISORDERS” (PARATEK PHARMACEUTICALS, INC., priority 2012, published 2015).
Where “and” joins values, the source holds several entries; their conditions need not be identical. Identical values can stand only once. Like-named read-outs stand apart in the source and are kept apart here.

Key:
[1] = tested on: animal models of MS and neuroprotection; assay: Accepted animal models of MS and neuroprotection (Table 2); parameters: concentration or dose not given beside the values; settings: in vivo
[2] = target: T1, recombinant human matrix metalloproteinase-9 (MMP-9) (Homo sapiens, UniProt P14780); assay: MMP-9 enzyme activity assay (cell-free); assay type: biochemical
T1 construct: an aliquot of active recombinant human matrix metalloproteinase-9 (MMP-9)(CalBioChem) was added; purchased CalBioChem
Protocol: Compound 1 was tested to determine specific anti-inflammatory characteristics. In vitro assays to assess the inhibition of substrate cleavage by matrix metalloproteinase 9 (MMP-9) and the inhibition of TNFα production by lipopolysaccharide (LPS)-activated macrophages were performed. MMP-9 activity was determined by fluorescence after incubation of recombinant MMP-9 with fluorescein-conjugated DQ gelatin for 90 min. TNFα production was determined by incubation of 10 ng/ml LPS with RAW264.7 macrophage cells for 24 h, followed by quantitation of TNFα in culture supernatant by ELISA.
This assay was designed to measure the degradation of substrate by purified enzyme. To a solution containing 2.5 μg/ml fluorescein-conjugated DQ gelatin (Invitrogen) in buffer (50 mM Tris-HCl, 150 mM NaCl, 5 mM CaCl2, 0.2 mM sodium azide, pH 7.6), tetracycline compounds were added at final concentrations ranging from 100 to 1 μM. Subsequently, an aliquot of active recombinant human matrix metalloproteinase-9 (MMP-9)(CalBioChem) was added to a final concentration of 0.05 μg/ml. The total volume of the reaction mixture was 200 μL and samples were contained in 96-well black plates (Corning). The mixture was incubated at room temperature in the dark for 85 min, after which the fluorescence was measured using a microplate reader. Samples containing no MMP-9 enzyme were used as negative controls and samples with enzyme and without compound were positive controls.

[3] = tested on: LPS-induced production of NO by J774A.1 macrophages; assay: NO production assay, LPS-activated J774A.1 macrophages; assay type: cell-based; settings: Mus musculus, J774.A1; 10 ng/ml LPS, 20 hr
Protocol: The J774A.1 mouse macrophage cell line was grown to confluence in DMEM medium containing 10% fetal bovine serum (FBS). Cells were harvested into single-cell suspensions (by incubation on ice and agitation), seeded into 96-well plates at 1×10^5 cells/well (200 μL volume) and incubated (5% CO2, 37° C.) overnight. Compounds were added to the cells at final concentrations ranging from 50 to 1 μM and pre-incubated for 1 hr. Lipopolysaccharide (LPS) was added to the cells at a final concentration of 10 ng/ml. After incubation for 20 hr, culture supernatants were harvested and transferred to a new 96-well plate. Levels of LPS-induced NO in the supernatants were quantified by Greiss reagent (Active Motif) with supernatants from unstimulated cells serving as a negative control.

in vivo = settings: for Kp at 0.5 hr / Kp at 1 hr / Kp at 2 hr / Kp at 4 hr / concentration at 0.5 hr / concentration at 1 hr / concentration at 2 hr / concentration at 4 hr: ip, 10 mg/kg
Protocol: Compounds were administered via the indicated routes and blood samples were removed at various times up to 24 hr. Concentration of compound was determined by LC/MS.

GLP phototoxicity assay = assay: GLP phototoxicity assay
Protocol: The compound was also shown to be negative in a GLP phototoxicity assay. […] Both 14-day acute toxicity and 28-day toxicology study were performed in rats with Compound 1 along with minocycline for comparison. Animals were administered daily oral doses from 15 to 150 mg/kg for up to 4 weeks followed by a recovery period.

bacterial ribosome = assay: Transcription/translation (TnT) in vitro assay of bacterial protein synthesis; assay type: biochemical
Protocol: The antibacterial activity of Compound 1 was evaluated against comparator compounds minocycline and doxycycline. Test compounds are considered to have antibacterial activity if they inhibit bacterial growth at test concentrations below 4 μM. […] Further, mechanistic evidence of their antibacterial activity was evaluated using the transcription/translation (TnT) in vitro assay which directly measures the bacterial cellular efficiency of protein synthesis with and without test compounds present.

[4] = tested on: Fmr1 KO mice and wild-type littermates; assay: Elevated Plus Maze test, mouse model of Fragile X Syndrome; assay type: in vivo; settings: 10 mg/kg/d i.p. osmotic pump, 1 week
Protocol: (§1) The purpose of this study was to test Compound 1 for treating Fragile X Syndrome. This study utilized Fmr1 KO mice, an animal model of Fragile X Syndrome.
(§2) The Fmr1 KO mice (C57BL/6 background) were kindly provided the FRAXA Foundation. Mice were housed in groups of the same genotype in a temperature and humidity controlled room with a 12-h light-dark cycle (lights on 7 am to 7 pm). Testing was conducted during the light phase. Food and water were available ad libitum. Testing was conducted on Fmr1 KO mice and their wild-type littermates. They were housed in commercial plastic cages purchased in the UK. Experiments were conducted in line with the requirements of the UK Animals (Scientific Procedures) Act, 1986.
(§3) The dosing protocol used is shown below. Mice were dosed at 6-7 weeks by intraperitoneal (i.p.) infusion by osmotic pump (0.5 μl/hour) for 1 week. The solution of 0.9% saline was used as a vehicle, and 10 mice were dosed per each group.

[5] = tested on: Fmr1 KO mice and wild-type littermates; assay: Open Field test, mouse model of Fragile X Syndrome; assay type: in vivo; settings: 10 mg/kg/d i.p. osmotic pump, 1 week
Protocol: as §1, §2, §3

MS = MS clinical studies, cited from earlier work
[6] = Table 4, unit inferred, read-out: MMP-9 activity (cell-free)
[7] = Table 11, read-out: MMP-9 Activity (cell-free) IC50

T1 sequence (P14780 107-707 limits assumed): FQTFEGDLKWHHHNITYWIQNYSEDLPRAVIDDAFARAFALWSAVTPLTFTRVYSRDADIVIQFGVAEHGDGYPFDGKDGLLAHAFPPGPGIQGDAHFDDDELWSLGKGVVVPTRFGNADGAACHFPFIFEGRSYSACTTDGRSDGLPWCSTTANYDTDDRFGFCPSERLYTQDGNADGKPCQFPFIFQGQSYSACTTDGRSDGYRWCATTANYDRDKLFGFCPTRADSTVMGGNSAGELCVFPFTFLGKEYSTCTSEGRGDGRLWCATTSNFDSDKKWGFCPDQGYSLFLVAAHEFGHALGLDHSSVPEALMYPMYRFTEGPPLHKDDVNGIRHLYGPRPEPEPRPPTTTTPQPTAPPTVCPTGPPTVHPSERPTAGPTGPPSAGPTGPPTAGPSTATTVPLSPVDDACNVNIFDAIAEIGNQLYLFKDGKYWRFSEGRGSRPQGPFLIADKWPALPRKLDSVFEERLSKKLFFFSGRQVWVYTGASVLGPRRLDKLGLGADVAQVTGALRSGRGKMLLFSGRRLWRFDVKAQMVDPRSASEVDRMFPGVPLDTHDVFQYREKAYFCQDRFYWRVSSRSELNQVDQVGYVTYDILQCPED

SMILES | % Inhibition Axon Loss [1] | % Inhibition Clinical Score [1] | % Inhibition Demyelination [1] | % Inhibition Inflammation [1] | IC50 [2, 6] | IC50 [2, 7] | IC50 [3] | AUC (in vivo; monkey, iv, 5 mg/kg) | Cmax (in vivo; monkey, iv, 5 mg/kg) | half-life (in vivo; monkey, iv, 5 mg/kg) | AUC (in vivo; monkey, po, 5 mg/kg) | Cmax (in vivo; monkey, po, 5 mg/kg) | Tmax (in vivo; monkey, po, 5 mg/kg) | bioavailability (in vivo; monkey, po, 5 mg/kg) | AUC (in vivo; rat, po, 5 mg/kg) | Cmax (in vivo; rat, po, 5 mg/kg) | Tmax (in vivo; rat, po, 5 mg/kg) | bioavailability (in vivo; rat, po, 5 mg/kg) | also measured
CCc1cc(N(C)C)c2c(c1O)C(=O)C1=C(O)[C@]3(O)C(=O)C(C(N)=O)=C(O)[C@@H](N(C)C)[C@@H]3C[C@@H]1C2 [Compound 1] | 70% | 65% | 69% | 74% | 29 µM | 32.7 µM | 30 µM | 70 µM·h | 28.5 µM | 5.7 h | 46.7 µM·h | 8.6 µM | 3 h | 66.9% | 14.3 µM·h | 1.25 µM | 2 h | 26% | Kp at 0.5 hr (in vivo; mouse, in vivo): 0.179; Kp at 1 hr (in vivo; mouse, in vivo): 0.284; Kp at 2 hr (in vivo; mouse, in vivo): 0.568; Kp at 4 hr (in vivo; mouse, in vivo): 1.17; concentration at 0.5 hr (in vivo; mouse, in vivo): 6860 ng/mL and 1230 ng/g; concentration at 1 hr (in vivo; mouse, in vivo): 6360 ng/mL and 1810 ng/g; concentration at 2 hr (in vivo; mouse, in vivo): 7020 ng/mL and 3990 ng/g; concentration at 4 hr (in vivo; mouse, in vivo): 3680 ng/mL and 4310 ng/g; half-life (in vivo; rat): 3.5 h; AUC (in vivo; rat, iv, 5 mg/kg): 54.4 µM·h; Cmax (in vivo; rat, iv, 5 mg/kg): 27.9 µM; GLP phototoxicity assay result (GLP phototoxicity assay): negative; Protein Synthesis Inhibition (IC50) (bacterial ribosome): >100 mg/L; Elevated Plus Maze: time spent in the close arm, Mean time ([4]; Fmr1 KO mice): 259.100 min; Elevated Plus Maze: time spent in the close arm, Mean time ([4]; WT mice): 227.800 min; Open Field Test - Trial 2, Mean time ([5]; Fmr1 KO mice): 97.100 min; Open Field Test - Trial 3, Mean time ([5]; Fmr1 KO mice): 72.600 min; Open Field Test - Trial 2, Mean time ([5]; WT mice): 83.900 min; Open Field Test - Trial 3, Mean time ([5]; WT mice): 68.300 min
CN(C)c1ccc(O)c2c1C[C@H]1C[C@H]3[C@H](N(C)C)C(O)=C(C(N)=O)C(=O)[C@@]3(O)C(O)=C1C2=O [Minocycline, minocycline, reference compound] | 38% | 40% | 34% | 43% | 43.2 µM | 43.2 µM | 46 ± 2.1 µM | 55.8 µM·h | 29.9 µM | 10.4 h | 44.6 µM·h | 4.4 µM | 3 h | 80.1% | 3.6 µM·h | 0.4 µM | 1.7 h | 30.7% | concentration at 0.5 hr (in vivo; brain): 138 ng/g; concentration at 1 hr (in vivo; brain): 380 ng/g; concentration at 2 hr (in vivo; brain): 317 ng/g; concentration at 4 hr (in vivo; brain): 327 ng/g; Kp at 0.5 hr (in vivo; brain/plasma): 0.095; Kp at 1 hr (in vivo; brain/plasma): 0.253; Kp at 2 hr (in vivo; brain/plasma): 0.508; Kp at 4 hr (in vivo; brain/plasma): 0.688; concentration at 0.5 hr (in vivo; plasma): 1.45 µg/mL; concentration at 1 hr (in vivo; plasma): 1.5 µg/mL; concentration at 2 hr (in vivo; plasma): 0.623 µg/mL; concentration at 4 hr (in vivo; plasma): 0.475 µg/mL; AUC (in vivo; rat, iv, 1 mg/kg): 2.4 µM·h; Cmax (in vivo; rat, iv, 1 mg/kg): 0.93 µM; half-life (in vivo; rat, iv, 1 mg/kg): 3.6 h; potential side effects (MS): Mild Nausea; potential side effects (MS; listed as minocycline): Mild nausea
